Test results: ChEMBL document CHEMBL3046677, “Diastereoselective synthesis of the model insect antifeedants related to azadiradione and epoxyazadiradione based on intramolecular insertion of -aryl--diazoketones” (1998)

System: Spodoptera littoralis
Assay: Antifeedant activity against Spodoptera littoralis assessed as antifeedant index at 100 ppm
Format: functional

`CC1(C)CCC[C@@]2(C)[C@H](c3ccoc3)C(=O)[C@H]3O[C@@]312` (stereo in doubt; (+)) was tested. Which AFI did it give?
The AFI was 55%.

Which AFI does the source give for `CC1(C)CCC[C@@]2(C)[C@H](c3ccoc3)C(=O)[C@H]3O[C@@]312` (racemic) here?
Its AFI is 28%.

With `CC1(C)CCC[C@@]2(C)[C@H](c3ccoc3)C(=O)[C@H]3O[C@@]312` (stereo in doubt; (-)) as the compound, how does the AFI read?
Its AFI is 32%.

Which AFI does the source give for `CC1(C)CCC[C@]2(C)C1=CC(=O)[C@H]2c1ccoc1` (racemic) here?
Its AFI is 16%.

How did the AFI turn out when `CC(=O)O[C@@H]1C[C@H]2C(C)(C)C(=O)C=C[C@]2(C)[C@H]2CC[C@]3(C)C(=CC(=O)[C@H]3c3ccoc3)[C@@]21C` [AZADIRADIONE] was run?
Its AFI is 1%.

With `CC(=O)O[C@@H]1C[C@H]2C(C)(C)C(=O)C=C[C@]2(C)[C@H]2CC[C@@]3(C)[C@H](c4ccoc4)C(=O)[C@H]4O[C@]43[C@@]21C` [EPOXYAZADIRADIONE] as the compound, how does the AFI read?
Its AFI is 22%.

System: Spodoptera frugiperda
Assay: Antifeedant activity against Spodoptera frugiperda (fall armyworm) assessed as antifeedant index at 100 ppm
Format: functional

Which AFI does the source give for `O=C1C=C2CCCC[C@H]2[C@@H]1c1ccoc1` (racemic) here?
Its AFI is 42%.

For `O=C1[C@H]2O[C@]23CCCC[C@H]3[C@@H]1c1ccccc1` (racemic), which AFI is on record?
Its AFI is -12%.

With `O=C1[C@H]2O[C@]23CCCC[C@H]3[C@@H]1c1ccsc1` (racemic) as the compound, how does the AFI read?
The AFI was 36%.

For `O=C1C=C2CCCC[C@H]2[C@@H]1c1ccsc1` (racemic), which AFI is on record?
The AFI was 1%.

Which AFI does the source give for `C[C@@H]1CCC[C@@]2(C)[C@H](c3ccoc3)C(=O)[C@H]3O[C@]132` (racemic) here?
The AFI was 29%.

How did the AFI turn out when `O=C1C=C2CCCC[C@H]2[C@@H]1c1ccccc1` (racemic) was run?
The AFI was 40%.
